Measurements: patent US20130196935A1, “SYNTHETIC GLYCOAMINE COMPOUNDS” (ANIMAL CELL THERAPIES INC., priority 2012, published 2013)
Several values for one entry are separate records, joined by “and”; a condition that tells them apart may be missing. Equal values may be shown once.

How the values were obtained:
[1] = system: SVR cells; assay: TUNEL assay, apoptosis induction of SVR cells; format: cell-based; details: 2 mM, 24 hours
Method: 1. Testing concentrations of ACT-1 and ACT-2: 2 mM. 2. Prepared 4 mM ACT-1=1.82 mg/mL and 4 mM ACT-2=1.81 mg/mL in complete culture medium. Sterilized the drug solutions by filtering through 0.2 μm syringe filters. 3. Added 100 μl of test articles or culture medium to 4 wells for each ACT-1 and ACT-2 in a 96-well plate. Added 100 μl of culture medium to 5 wells (for non-treated and DNase treatment controls). 4. Trypsinized SVR cells (P3) and prepared 5×10^3 cells/mL solution in culture medium. Added 100 μl of cell solution to each well (500 cells/well). Mixed well by gentle pipetting. 5. Incubated at 37° C. for 24 hours. 6. Removed medium and added 100 μl of 4% PFA in PBS to the wells. Incubated at room temperature for 15 min. 7. Removed PFA solution and 100 μl of permeabilization reagent (0.25% Triton X-100 in PBS) (Triton X-100: Sigma Cat #: T8787-100ML). Incubated at room temperature for 20 min. Washed twice with deionized water. 8. TUNEL reaction was then carried out exactly as the protocol provided by the kit (Invitrogen Click-iT TUNEL Alexa Fluor Imaging Assay Kit, Cat #: C10245). Treated one well (culture medium control) with DNase as positive control for the TUNEL reaction. The reaction volume for each well was 50 μl. 9. After TdT and Click-iT reactions, DNA was stained with Hoechst 33342 (provided by the kit) 1:5,000 in PBS at RT for 15 min. Washed wells three times with PBS. 10. […]

[2] = system: SVR cells; assay: Clonogenic survival (colony formation) of SVR cells; format: cell-based; details: for Colony # (single well): 200 SVR cells per well; for Colony # Average: average of 4 wells; for inhibition of colony formation compared to the control: two-tailed t-test; for inhibition of SVR cell colony formation: concentrations 1 mM and higher, compared to control
Method: 1. Testing concentrations of ACT-1 and ACT-2: 1 mM, 500 μM, 250 μM, 125 μM, and 62.5 μM. 2. Prepared 2 mM ACT-1=0.91 mg/mL and 2 mM ACT-2=0.91 mg/mL in SVR complete culture medium. Sterilized the test article solutions by filtering through 0.2 μm syringe filters (Whatman Puradisc 25 mm, Cat #6780-2502). 3. Prepared solutions in 2× testing concentrations (2 mM, 1 mM, 500 μM, 250 μM, 125 μM and 62.5 μM) by preparing 2× dilution from 2 mM stock solution (mixing 2.4 mL culture medium with 2.4 mL of 2 mM solution, and make serial 2× dilutions the same way). 4. Pipetted 0.5 mL of test articles to 24-well plates according to the layout below (ACT-1 in one plate and ACT-2 in another plate). Each concentration will be tested in quadruplicate.
5. Trypsinized SVR cells (P1) and prepared 400 cells/mL solution in culture medium. Pipetted 0.5 mL cell solution to each well (200 cells/well). Mixed well by gentle pipetting. 6. Cultured cells at 37° C. incubator for 6 days. 7. Aspirated medium from the wells. Rinsed cells once with 1 mL of PBS (LONZA, Cat #: 17-516Q). 8. Fixed cells with 0.5 mL of freshly prepared 4% paraformaldehyde (PFA) (1:8 dilution of 32% PFA solution in PBS; 32% PFA solution: Electron Microscopy Sciences Cat #:15714) in PBS at RT for 20 min. Removed PFA and washed cells once with 1 mL PBS. 9. Stained cells with 0.3 mL of Mayer's hematoxylin solution (Sigma Cat#: MHS1-100ML) at RT for 15 min. Removed hematoxylin solution and rinsed cells twice with 1 mL of warm tap water. 10. Counted cell colonies under microscope with 40× magnification (divide the wells with makers into 4 sections. Count the numbers of colonies from each section and add the numbers to yield the final colony numbers).
1. Testing concentrations of ACT-1 and ACT-2: 4 mM, 2 mM, 1 mM, and 0.5 mM. 2. The experimental procedures were the same as in Experiment 1-1, except that the total volume in each well was 0.6 mL (0.3 mL of 2× concentrated test articles and 0.3 mL of 667 cells/mL cell solution).
3. Cultured cells at 37° C. incubator for 6 days. 4. Visualized the cell colonies by staining with hematoxylin as described above. 5. Counted the colonies under microscope.

[3] = MTS cytotoxicity assay on SVR cells; format: cell-based; details: mouse, SVR cells, 48 hours, MTS, read-out: Viability of SVR cells compared to control, Ave (%)
Method: (§1) 1. Testing concentrations of ACT-1 and ACT-2: 8 mM, 4 mM, 2 mM, 1 mM, 0.5 mM, 0.25 mM and 0.125 mM. 2. Trypsinized exponentially growing BAECs (P1) and SVR cells (P4), and prepared 5×10^4 cells/mL cell solution for BAECs and […] for SVR cells. Add 100 μl of cell solution to 96-well plates to achieve 5,000 cells/well for BAECs and 1,000 cells/well for SVR cells. Incubated cells at 37° C. overnight. 3. Prepared 8 mM=3.64 mg/mL and 8 mM ACT-2=3.62 mg/mL in BAEC complete culture medium. Sterilized the drug solutions by filtering through 0.2 μm syringe filters. 4. Prepared 2× serial dilutions from 8 mM stock solution by mixing 0.6 mL drug solution with 0.6 mL culture medium. 5. Aspirated medium from wells and added 80 μl of test article solutions to the wells according to the layout below.
(§2) 6. Incubated cells at 37° C. for 48 hours. 7. Aspirated the medium from wells and added fresh 70 μl culture medium to the wells. 8. Prepared MTS reagent (Promega CellTiter 96 Aqueous MTS assay reagents, Cat #G5421) by mixing 2.4 mL MTS, 120 μl PMS and 3.779 mL culture medium. Added 50 μl MTS assay reagent to the wells using a multiple channel pipette. 9. Incubate at 37° C. for 2 hours. Read absorbance at 490 nm using a plate reader.

[4] = system: SVR cells; assay: MTS cytotoxicity assay on SVR cells; format: cell-based; details: for significance level P, cytotoxic effect on SVR cells compared to the control: 8 mM, two-tailed t-test; for cytotoxic effect on SVR cells: only at 8 mM, 48 hours, MTS
Method: as §1, §2

[5] = MTS cytotoxicity assay on primary BAEC; format: cell-based, bovine; details: bovine, primary bovine aortic endothelial cells (BAEC), read-out: Viability of BAEC cells compared to control, Ave (%)
Method: as §1, §2

[6] = system: primary bovine aortic endothelial cells (BAEC); assay: MTS cytotoxicity assay on primary BAEC; format: cell-based; details: 0.125-8 mM, 48 hours
Method: as §1, §2

[7] = Experiment A, 62.5 μM, six days after treatment
[8] = Experiment A, 62.5 μM, six days
[9] = Experiment A, 125 μM, six days after treatment
[10] = Experiment A, 250 μM, six days after treatment
[11] = Experiment A, 500 μM, six days after treatment
[12] = Experiment A, 1000 μM, six days after treatment
[13] = Experiment A, 1000 μM, six days
[14] = Experiment B (higher concentrations), 0.5 mM, six days
[15] = Experiment B (higher concentrations), 1 mM, six days
[16] = Experiment B (higher concentrations), 2 mM, six days
[17] = Experiment B (higher concentrations), 4 mM, six days

SMILES | TUNEL nuclear staining (apoptosis induction) [1] | Colony # (single well) [2, 7] | Colony # Average [2, 8] | Colony # (single well) [2, 9] | Colony # Average ([2]; Experiment A, 125 μM, six days) | Colony # (single well) [2, 10] | Colony # Average ([2]; Experiment A, 250 μM, six days) | Colony # (single well) [2, 11] | Colony # Average ([2]; Experiment A, 500 μM, six days) | Colony # (single well) [2, 12] | Colony # Average [2, 13] | Colony # (single well) [2, 14] | Colony # (single well) [2, 15] | Colony # (single well) [2, 16] | Colony # (single well) [2, 17] | Colony # Average ([2]; Experiment B, 0.5 mM, six days) | Colony # Average ([2]; Experiment B, 1 mM, six days) | Colony # Average ([2]; Experiment B, 2 mM, six days) | Colony # Average ([2]; Experiment B, 4 mM, six days) | inhibition of SVR cell colony formation ([2]; Experiment B) | other results
CC(C)CC(NC[C@@]1(O)OC[C@@H](O)[C@@H](O[C@@H]2O[C@H](CO)[C@H](O)[C@H](O)[C@H]2O)[C@@H]1O)C(=O)O (stereo in doubt) [ACT-1] | nuclear staining was not observed | 43 and 42 and 41 and 39 | 41.3 | 44 and 41 and 39 | 40.8 | 43 and 40 and 41 and 34 | 39.5 | 42 and 41 and 33 | 39.3 | 34 and 32 | 33.0 | 40 and 45 and 35 | 38 and 32 and 33 and 34 | 1 and 2 | 0 | 40.0 | 34.3 | 1.8 | 0.0 | inhibited SVR cell colony formation | inhibition of colony formation compared to the control ([2]; Experiment A, 1 mM): significant inhibition of colony formation; viability at 48 h, 0.125 mM [3]: 97.4%; viability at 48 h, 0.25 mM [3]: 99.7%; viability at 48 h, 0.5 mM [3]: 100%; viability at 48 h, 1 mM [3]: 97.7%; viability at 48 h, 2 mM [3]: 95.8%; viability at 48 h, 4 mM [3]: 93.1%; viability at 48 h, 8 mM [3]: 71.2%; significance level P, cytotoxic effect on SVR cells compared to the control [4]: 0.016; cytotoxic effect on SVR cells [4]: significant cytotoxic effect; viability at 48 h, 0.125 mM [5]: 104%; viability at 48 h, 0.25 mM [5]: 112%; viability at 48 h, 0.5 mM [5]: 118%; viability at 48 h, 1 mM [5]: 126%; viability at 48 h, 2 mM [5]: 122%; viability at 48 h, 4 mM [5]: 112%; viability at 48 h, 8 mM [5]: 99.4%; cytotoxic effect on primary BAECs [6]: did not show significant cytotoxic effect
O=C(O)[C@H](CC1CC1)NC[C@@]1(O)OC[C@@H](O)[C@@H](O[C@@H]2O[C@H](CO)[C@H](O)[C@H](O)[C@H]2O)[C@@H]1O [ACT-2] | nuclear staining was not observed | 49 and 51 and 43 and 48 | 47.8 | 44 and 42 and 39 | 41.8 | 50 and 44 and 39 and 37 | 42.5 | 39 and 31 and 33 and 35 | 34.5 | 33 and 36 and 39 and 28 | 34.0 | 38 and 34 and 40 and 31 | 13 and 23 and 19 and 16 | 0 | 0 | 35.8 | 17.8 | 0.0 | 0.0 | inhibited SVR cell colony formation | inhibition of colony formation compared to the control ([2]; Experiment A, 0.5 mM): significant inhibition of colony formation; viability at 48 h, 0.125 mM [3]: 98.2%; viability at 48 h, 0.25 mM [3]: 105%; viability at 48 h, 0.5 mM [3]: 98.7%; viability at 48 h, 1 mM [3]: 92.5%; viability at 48 h, 2 mM [3]: 95.1%; viability at 48 h, 4 mM [3]: 87.8%; viability at 48 h, 8 mM [3]: 76.1%; significance level P, cytotoxic effect on SVR cells compared to the control [4]: 0.018; cytotoxic effect on SVR cells [4]: significant cytotoxic effect; viability at 48 h, 0.125 mM [5]: 107%; viability at 48 h, 0.25 mM [5]: 133%; viability at 48 h, 0.5 mM [5]: 136%; viability at 48 h, 1 mM [5]: 132%; viability at 48 h, 2 mM [5]: 133%; viability at 48 h, 4 mM [5]: 118%; viability at 48 h, 8 mM [5]: 106%; cytotoxic effect on primary BAECs [6]: did not show significant cytotoxic effect
